Key:
clinical = details: human, in vivo; for AUC(0-inf): AUC0-∞
Description: This was the first-in-human phase I dose-escalation study of AST1306 for patients with advanced solid tumors. AST1306 was orally administered without food for one day followed by two days off to evaluate single dose PK profiles. After that, it was continuously administered for 21 days and two days off to assess multiple dose PK profiles and safety. […] Three times daily in three dose levels (800 mg TID, 1000 mg TID and 1200 mg TID) were explored subsequently. Treatment was then repeated at the same dose level in 28-day cycles until unacceptable toxicities, disease progression or the patient’s withdrew from the study. PK extension study was performed to enroll additional patients up to at least eight patients per dose cohort in three dose levels (MTD, one or two doses level lower than the MTD) for further evaluation of PK profiles.
All PK sampling was performed in the first cycle. Plasma concentrations of AST1306 single-day dosing were determined at the following distinct time points: pre-dose, 0.5 h, 1 h, 1.5 h, 2 h, 3 h, 4 h, 6 h, 8 h, 10 h, 12 h, 24 h, 36 h, and 48 h after the single dose administration in the 400 mg QD and 800 mg QD dose cohorts. For the next five dose cohorts with twice daily (once every 12 hours) administration, the time points of plasma sample collection were as follows: pre-dose, 0.5 h, 1 h, 1.5 h, 2 h, 3 h, 4 h, 6 h, 8 h, and 12 h after the first dose administration, and pre-dose, 1 h, 2 h, 3 h, 4 h, 6 h, 8 h, 12 h, and 24 h after the second dose administration. Three dose cohorts with three times daily (once every 8 hours) administration were further investigated with distinct time points for plasma collecting (pre-dose, 0.5 h, 1 h, 1.5 h, 2 h, 3 h, 4 h, 6 h, and 8 h after the first dose administration; 1 h, 2 h, 3 h, 4 h, 5 h, 6 h, and 8 h after the second dose administration; 1 h, 2 h, 3 h, 4 h, 8 h, 12 h, 24 h, and 36 h after the third dose administration). PK parameters of AST1306 were also determined on days 10, 23 (pre-dose and 2 h after the first dosing), and 24 (steady state, the same time points as the first-day dosing) of continuous treatment. The PK sampling schedule for the PK extension phase was totally the same as that for the dose escalation study.
PK analysis was conducted using Phoenix WinNonlin® software (version 6.1, Pharsight, Mountainview, CA). Standard non-compartmental methods were used to calculate the area under the plasma concentration-time curve over the time interval from 0 to 24 h (AUC0–24,ss), maximum measured concentration of the analyte in plasma (Cmax), and terminal half-life of the analyte in plasma (t1/2). Time from dosing to the maximum concentration of the analyte in plasma (tmax,) was reported as a median value. The concentration at the trough level was determined using the concentration at 24 h (C24) on steady state days.
The power model method was used to assess the dose proportionality. The differences between fed and fasting conditions were assessed by ANOVA, and 90% confidence intervals for ratios were given.

[1] = Food-effect study, two-way crossover, single dose; format: in vivo, human; details: for apparent oral clearance (CL/F) / Tmax / AUC(0-inf) / AUC(0-t) / Cmax / half-life: 1000 mg single oral dose; for apparent oral clearance (CL/F) / AUC(0-inf) / AUC(0-t) / Cmax / half-life: geometric mean (range); for Tmax / AUC(0-inf) / AUC(0-t) / Cmax / half-life: plasma, po; for Tmax: (range); for half-life: read-out: t1/2z (converted)
Description: Figure S1). On day 1, 6 subjects were fasted and 6 were fed, and all 12 subjects received a single dose of AST1306. […] On “fasting” days (day 1 or 4), subjects were required to fast for a minimum of 2 h prior to dosing, and for at least 1 h post-dosing. […] PK sampling then took place on day 1 and day 4. The PK sampling time points were pre-dose, 0.5, 1, 1.5, 2, 2.5, 3, 4, 6, 8, 12, and 24 hours after dosing. The power model method was used to assess the dose proportionality.

advanced solid tumors = assay: Antitumor activity by RECIST 1.0; format: in vivo, human
Description: Antitumor activity was assessed by tumor measurements according to RECIST 1.0 and performed at 8-week intervals. The primary efficacy endpoint was progression free survival (PFS), which was defined as the time from the first administration until disease progression or death. Overall survival (OS) and response rate were also assessed. Clinical benefit rate was measured and defined as the proportion of patients with complete response, partial response and stable disease (SD) ≥ 6 months.

HER2 = tested on: HER2; set-up: method as in PMID 21789172, PMID 18408761, PMID 15728811, PMID 15737014, PMID 17085664; details: preclinical; read-out: IC50 inhibiting HER2; cited from earlier work
EGFR T790M mutant = tested on: EGFR T790M mutant; set-up: method as in PMID 21789172, PMID 18408761, PMID 15728811, PMID 15737014, PMID 17085664; details: cited from earlier work
[2] = human, 1000 mg, fed, high-fat breakfast (n =12)

C=CC(=O)Nc1ccc2ncnc(Nc3ccc(OCc4cccc(F)c4)c(Cl)c3)c2c1 [AST1306]
Tmax (clinical): 2.65 (43.8) h | multiple-dose vs single-dose exposure (mean accumulation ratio R, AUCss day 23–24 / AUC0-24h day 1) (clinical): no more than 3 fold | t1/2z (clinical): 5.56 (51.6) h | AUC0-24 h (clinical; 400 mg): 116 ng·h/mL | AUC0-∞ (clinical; 400 mg): 119 ng·h/mL | AUC(0-t) (clinical; 400 mg): 116 ng·h/mL | Cmax (clinical; 400 mg): 22.6 ng/mL | R_AUC (accumulation ratio, AUCss days 23–24 / AUC0-24h day 1) (clinical; 400 mg): 2.81 | Tmax (clinical; 400 mg): 2.00 h | t1/2z (clinical; 400 mg): 4.66 h | λz (clinical; 400 mg): 0.149 h⁻¹ | Cmax3 (clinical; 600 mg): 64.5 (69.4) ng/mL | Cmax (clinical; 800 mg): 50.0 (16.0) ng/mL | Cmax2 (clinical; 800 mg): 74.3 (20.4) ng/mL | Cmax (clinical; 800 mg, Cmax): 67.7 ng/mL | AUC0-24 h (clinical; 1000 mg): 696 (57.6) h*ng/mL | AUC0-∞ (clinical; 1000 mg): 792 (54.1) h*ng/mL | AUC(0-t) (clinical; 1000 mg): 781 (54.7) h*ng/mL | Cmax (clinical; 1000 mg): 75.0 (52.1) ng/mL | Cmax3 (clinical; 1000 mg): 89.7 (42.1) ng/mL | AUC(0-t) (clinical; 1000 mg, AUC0-24 h): 1130 ng·h/mL | AUC(0-t) (clinical; 1000 mg, AUC0-t): 1420 ng·h/mL | AUC(0-inf) (clinical; 1000 mg): 1430 ng·h/mL | Cmax (clinical; 1000 mg, Cmax): 47.3 ng/mL | Cmax (clinical; 1200 mg): 50.9 (70.6) ng/mL | Cmax3 (clinical; 1200 mg): 210.0 (81.5) ng/mL | Cmax (clinical; 1200 mg, Cmax): 61.9 ng/mL | Cmax2 (clinical; 1500 mg): 103.0 (25.8) ng/mL | R_AUC (accumulation ratio, AUCss days 23–24 / AUC0-24h day 1) (clinical; 1500 mg): 0.87 (32.0) | Tmax (clinical; 1500 mg): 1.92 (30.5) h | t1/2z (clinical; 1500 mg): 3.48 (12.8) h | λz (clinical; 1500 mg): 0.202 (13.3) 1/h | AUC(0-t) (clinical; 1500 mg, AUC0-24 h): 997 ng·h/mL | AUC(0-t) (clinical; 1500 mg, AUC0-t): 1190 ng·h/mL | AUC(0-inf) (clinical; 1500 mg): 1200 ng·h/mL | Cmax (clinical; 1500 mg, Cmax): 57.1 ng/mL | half-life (clinical; gMean terminal half-life): 200 to 454 min | time to Cmax after oral administration (clinical; po): 1.83 to 3.67 h | half-life (clinical; t1/2): 180 to 300 min | half-life (clinical; terminal half-life): 209 to 334 min | apparent oral clearance (CL/F) ([1]; fasted (n =12)): 3970 (1370-8890) L/h | apparent oral clearance (CL/F) ([1]; fed, high-fat breakfast (n =12)): 1360 (608-2340) L/h | Treatment ratio fed/fasted, AUC0-∞ ([1]; human, in vivo, 1000 mg): 269 (208-348) % | Treatment ratio fed/fasted, AUC0–t ([1]; human, in vivo, 1000 mg): 284 (219-368) % | Treatment ratio fed/fasted, Cmax ([1]; human, in vivo, 1000 mg): 228 (170-305) % | Tmax ([1]; human, 1000 mg, fasted (n =12)): 2.38 h | AUC(0-inf) ([1]; human, 1000 mg, fasted (n =12)): 331 ng·h/mL | AUC(0-t) ([1]; human, 1000 mg, fasted (n =12)): 311 ng·h/mL | Cmax ([1]; human, 1000 mg, fasted (n =12)): 70.3 ng/mL | half-life ([1]; human, 1000 mg, fasted (n =12)): 419 min | Tmax [1, 2]: 4.25 h | AUC(0-inf) [1, 2]: 814 ng·h/mL | AUC(0-t) [1, 2]: 797 ng·h/mL | Cmax [1, 2]: 139 ng/mL | half-life [1, 2]: 251 min | median OS (advanced solid tumors; 12 NSCLC patients): not yet been reached | median PFS (advanced solid tumors; 12 NSCLC patients): 3.6 months | median OS (advanced solid tumors; 17 breast cancer patients): 17.7 (95% CI, 16.1–19.3) months | median PFS (advanced solid tumors; 17 breast cancer patients): 5.5 (95% CI, 3.2–7.9) months | confirmed PR, % of patients (advanced solid tumors; 55 evaluable patients): 12.7% | confirmed partial responses, patients (advanced solid tumors; 55 evaluable patients): 7 | stable disease ≥ 6 months, patients (advanced solid tumors; 55 evaluable patients): 7 | confirmed PR, patients (advanced solid tumors; NSCLC, 12 evaluable): 1 | confirmed PR, patients (advanced solid tumors; breast cancer, 17 evaluable, all responders HER2 positive): 5 | confirmed PR, patients (advanced solid tumors; gastric cancer): 1 | IC50 (HER2): 3 nM | fold more potent than lapatinib (EGFR T790M mutant; EGFR T790M mutant): approximately 500 fold | IC50 (EGFR T790M mutant; preclinical): 12 ± 2 nM
